Assay in all cases: relative viability (nuclei count vs DMSO), 5 days (fraction); higher = more cells survive
Compound in the assay “RO-3306 + Trametinib”: C1=CC2=C(C=CC(=C2)C=C3C(=O)NC(=NCC4=CC=CS4)S3)N=C1 [RO-3306] + CC(=O)Nc1cccc(-n2c(=O)n(C3CC3)c(=O)c3c(Nc4ccc(I)cc4F)n(C)c(=O)c(C)c32)c1 [Trametinib] (partner 0.02 µM)
The method, boiled down:
(§1)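 Relative viability is defined as nuclei in treated wells over nuclei in vehicle wells. Duplicate plates were run and medians reported. Lung cancer cell lines in 1536-well plates were dosed by pin tool one day after seeding, with one drug or with a fixed anchor-drug dose plus five library-drug doses (not always all listed) in √10 steps, and nuclei were counted after 5 days.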

Compound in the assay “RO-3306 + Lapatinib”: C1=CC2=C(C=CC(=C2)C=C3C(=O)NC(=NCC4=CC=CS4)S3)N=C1 [RO-3306] + CS(=O)(=O)CCNCc1ccc(-c2ccc3ncnc(Nc4ccc(OCc5cccc(F)c5)c(Cl)c4)c3c2)o1 [Lapatinib] (partner 2 µM)
The method, boiled down:
as §1

Compound in assay [1]: O=S(=O)(c1ccccc1)N(CC(F)(F)F)c1ccc(C(O)(C(F)(F)F)C(F)(F)F)cc1 + CC(=O)Nc1cccc(-n2c(=O)n(C3CC3)c(=O)c3c(Nc4ccc(I)cc4F)n(C)c(=O)c(C)c32)c1 [Trametinib] (partner 0.02 µM)
In outline:
as §1

Compound in assay [2]: O=S(=O)(c1ccccc1)N(CC(F)(F)F)c1ccc(C(O)(C(F)(F)F)C(F)(F)F)cc1 + CC(=O)c1c(C)c2cnc(Nc3ccc(N4CCNCC4)cn3)nc2n(C2CCCC2)c1=O [Palbociclib] (partner 0.5 µM)
In outline:
as §1

Compound in assay [3]: O=S(=O)(c1ccccc1)N(CC(F)(F)F)c1ccc(C(O)(C(F)(F)F)C(F)(F)F)cc1 + Cc1nc(Nc2ncc(C(=O)Nc3c(C)cccc3Cl)s2)cc(N2CCN(CCO)CC2)n1 [Dasatinib] (partner 0.075 µM)
In outline: as §1

For EPLC-272H, the relative viability came out at 0.272 with RO-3306 + Trametinib (first compound 0.01 µM); 0.293 with RO-3306 + Trametinib (first compound 0.1 µM); 0.284 with RO-3306 + Trametinib (first compound 0.3162 µM); 0.271 in the assay with RO-3306 + Trametinib (first compound 1 µM); 0.789 in the assay with RO-3306 + Lapatinib (first compound 0.01 µM); 0.595 with RO-3306 + Lapatinib (first compound 0.03162 µM). In addition, the relative viability came out at 0.803 in the assay with RO-3306 + Lapatinib (first compound 0.1 µM); 0.768 with RO-3306 + Lapatinib (first compound 0.3162 µM); 0.849 with RO-3306 + Lapatinib (first compound 1 µM); 0.274 in assay [1] (first compound 0.8 µM); 0.289 in assay [1] (first compound 2.53 µM); 0.269 in assay [1] (first compound 8 µM). In addition, the relative viability in assay [2] (first compound 0.8 µM) amounted to 0.357; in assay [2] (first compound 2.53 µM) it was 0.286; in assay [2] (first compound 8 µM) it was 0.261; in assay [3] (first compound 0.8 µM), 0.323; in assay [3] (first compound 2.53 µM), 0.398; in assay [3] (first compound 8 µM), 0.384.

Take HCC-366: the relative viability amounted to 0.378 with RO-3306 + Trametinib (first compound 0.01 µM); 0.326 with RO-3306 + Trametinib (first compound 0.03162 µM); 0.374 in the assay with RO-3306 + Trametinib (first compound 0.1 µM); 0.381 in the assay with RO-3306 + Trametinib (first compound 0.3162 µM); 0.313 in the assay with RO-3306 + Trametinib (first compound 1 µM); 1.1 with RO-3306 + Lapatinib (first compound 0.01 µM). In addition, the relative viability with RO-3306 + Lapatinib (first compound 0.03162 µM) amounted to 0.939; in the assay with RO-3306 + Lapatinib (first compound 0.1 µM), 0.91; with RO-3306 + Lapatinib (first compound 0.3162 µM) it was 1.09; with RO-3306 + Lapatinib (first compound 1 µM), 0.759; in assay [1] (first compound 0.8 µM) it was 0.469; in assay [1] (first compound 2.53 µM), 0.335. In addition, the relative viability amounted to 0.23 in assay [1] (first compound 8 µM); 0.649 in assay [2] (first compound 0.8 µM); 0.379 in assay [2] (first compound 2.53 µM); 0.239 in assay [2] (first compound 8 µM); 0.856 in assay [3] (first compound 0.8 µM); 0.674 in assay [3] (first compound 2.53 µM). In addition, the relative viability in assay [3] (first compound 8 µM) was found to be 0.606.

Consider PC-14, for which the relative viability with RO-3306 + Trametinib (first compound 0.01 µM) amounted to 0.827; with RO-3306 + Trametinib (first compound 0.03162 µM), 0.607; with RO-3306 + Trametinib (first compound 0.1 µM), 0.614; in the assay with RO-3306 + Trametinib (first compound 0.3162 µM), 0.78; with RO-3306 + Trametinib (first compound 1 µM), 0.766; with RO-3306 + Lapatinib (first compound 0.01 µM), 0.326. Moreover, the relative viability came to 0.395 with RO-3306 + Lapatinib (first compound 0.03162 µM); 0.312 in the assay with RO-3306 + Lapatinib (first compound 0.1 µM); 0.317 with RO-3306 + Lapatinib (first compound 0.3162 µM); 0.295 in the assay with RO-3306 + Lapatinib (first compound 1 µM); 0.705 in assay [1] (first compound 0.8 µM); 0.554 in assay [1] (first compound 2.53 µM). The relative viability in assay [1] (first compound 8 µM) turned out to be 0.477; in assay [2] (first compound 0.8 µM) it was 0.345; in assay [2] (first compound 2.53 µM) it was 0.254; in assay [2] (first compound 8 µM), 0.198; in assay [3] (first compound 0.8 µM), 0.265; in assay [3] (first compound 2.53 µM) it was 0.213. In assay [3] (first compound 8 µM), the relative viability amounted to 0.106.

Turning to LU99A, the relative viability in the assay with RO-3306 + Trametinib (first compound 0.01 µM) came to 0.638; in the assay with RO-3306 + Trametinib (first compound 0.03162 µM), 0.522; with RO-3306 + Trametinib (first compound 0.1 µM) it was 0.556; with RO-3306 + Trametinib (first compound 0.3162 µM) it was 0.554; with RO-3306 + Trametinib (first compound 1 µM), 0.575; in the assay with RO-3306 + Lapatinib (first compound 0.01 µM) it was 1.2. For the same cell line, the relative viability with RO-3306 + Lapatinib (first compound 0.03162 µM) turned out to be 0.971; in the assay with RO-3306 + Lapatinib (first compound 0.1 µM) it was 0.915; in the assay with RO-3306 + Lapatinib (first compound 0.3162 µM), 0.789; with RO-3306 + Lapatinib (first compound 1 µM), 0.914; in assay [1] (first compound 0.8 µM), 0.521; in assay [1] (first compound 2.53 µM), 0.541. For the same cell line, the relative viability in assay [1] (first compound 8 µM) is 0.464; in assay [2] (first compound 0.8 µM), 0.407; in assay [2] (first compound 2.53 µM), 0.343; in assay [2] (first compound 8 µM) it was 0.374; in assay [3] (first compound 0.8 µM), 0.652; in assay [3] (first compound 2.53 µM), 0.603. For the same cell line, in assay [3] (first compound 8 µM), the relative viability is 0.629.

NCI-H2087: the relative viability in the assay with RO-3306 + Trametinib (first compound 0.01 µM) was found to be 0.176; in the assay with RO-3306 + Trametinib (first compound 0.03162 µM), 0.193; with RO-3306 + Trametinib (first compound 0.1 µM) it was 0.188; in the assay with RO-3306 + Trametinib (first compound 0.3162 µM), 0.234; with RO-3306 + Trametinib (first compound 1 µM), 0.202; with RO-3306 + Lapatinib (first compound 0.01 µM) it was 0.894. The relative viability turned out to be 1.12 with RO-3306 + Lapatinib (first compound 0.03162 µM); 1.02 with RO-3306 + Lapatinib (first compound 0.1 µM); 0.968 with RO-3306 + Lapatinib (first compound 0.3162 µM); 0.889 with RO-3306 + Lapatinib (first compound 1 µM); 0.26 in assay [1] (first compound 0.8 µM); 0.173 in assay [1] (first compound 2.53 µM). Further, the relative viability in assay [1] (first compound 8 µM) was found to be 0.2; in assay [2] (first compound 0.8 µM), 0.253; in assay [2] (first compound 2.53 µM), 0.183; in assay [2] (first compound 8 µM) it was 0.261; in assay [3] (first compound 0.8 µM), 0.72; in assay [3] (first compound 2.53 µM), 0.713. In addition, in assay [3] (first compound 8 µM), the relative viability is 0.74.

As for BEN, the relative viability was determined as 1 with RO-3306 + Trametinib (first compound 0.01 µM); 0.895 in the assay with RO-3306 + Trametinib (first compound 0.03162 µM); 1.02 with RO-3306 + Trametinib (first compound 0.1 µM); 1.13 with RO-3306 + Trametinib (first compound 0.3162 µM); 1.13 in the assay with RO-3306 + Trametinib (first compound 1 µM); 0.726 with RO-3306 + Lapatinib (first compound 0.01 µM). Besides, the relative viability with RO-3306 + Lapatinib (first compound 0.03162 µM) is 0.759; with RO-3306 + Lapatinib (first compound 0.1 µM) it was 0.754; with RO-3306 + Lapatinib (first compound 0.3162 µM), 0.8; with RO-3306 + Lapatinib (first compound 1 µM), 0.744; in assay [1] (first compound 0.8 µM), 1.05; in assay [1] (first compound 2.53 µM), 0.888. The relative viability was 1.02 in assay [1] (first compound 8 µM); 0.506 in assay [2] (first compound 0.8 µM); 0.504 in assay [2] (first compound 2.53 µM); 0.454 in assay [2] (first compound 8 µM); 0.252 in assay [3] (first compound 0.8 µM); 0.275 in assay [3] (first compound 2.53 µM). In addition, the relative viability in assay [3] (first compound 8 µM) is 0.333.

In the case of NCI-H2405, the relative viability with RO-3306 + Trametinib (first compound 0.01 µM) stood at 0.637; with RO-3306 + Trametinib (first compound 0.03162 µM), 0.557; with RO-3306 + Trametinib (first compound 0.1 µM) it was 0.636; with RO-3306 + Trametinib (first compound 0.3162 µM) it was 0.63; with RO-3306 + Trametinib (first compound 1 µM), 0.613; in the assay with RO-3306 + Lapatinib (first compound 0.01 µM) it was 1.03. The relative viability stood at 1.04 with RO-3306 + Lapatinib (first compound 0.03162 µM); 1.01 with RO-3306 + Lapatinib (first compound 0.1 µM); 1.09 in the assay with RO-3306 + Lapatinib (first compound 0.3162 µM); 1.01 in the assay with RO-3306 + Lapatinib (first compound 1 µM); 0.673 in assay [1] (first compound 0.8 µM); 0.615 in assay [1] (first compound 2.53 µM). Also, the relative viability in assay [1] (first compound 8 µM) was determined as 0.707; in assay [2] (first compound 0.8 µM) it was 0.554; in assay [2] (first compound 2.53 µM), 0.506; in assay [2] (first compound 8 µM) it was 0.55; in assay [3] (first compound 0.8 µM), 0.117; in assay [3] (first compound 2.53 µM) it was 0.15. For the same cell line, the relative viability in assay [3] (first compound 8 µM) turned out to be 0.134.
